Data: patent US20250127778A1, “CANCER IMMUNOTHERAPY COMPOSITION CONTAINING INTERACTION INHIBITOR OF STING AND TRIM29 AS ACTIVE INGREDIENT” (SPARK BIOPHARMA, INC, priority 2021, published 2025)

How the values were obtained:
STING [1] = molecular target: STING (Homo sapiens, UniProt Q86WV6); experiment: Western blotting of STING under co-treatment with MG132, actinomycin D or cycloheximide; type: cell-based
Excerpt: In addition, in order to cross-validate the results of the ELISA experiment, it was confirmed whether the STING increasing effect of the compound of Formula 1 was disappeared when ubiquitinated proteins were prevented from being degraded by treatment with MG132.
In addition, in order to exclude the possibility that the increase in STING expression by the compound of Formula 1 can occur through cellular mechanisms other than ubiquitin-mediated reactions, the transcription inhibitor actinomycin D (ActD) and the ribosome translation inhibitor cycloheximide (CHX) were co-treated with the compound of Formula 1, and whether the STING increase effect was still maintained was confirmed by using the Western blotting method.

TRIM29 = molecular target: T1, TRIM29 (Homo sapiens, UniProt Q14134); experiment: ITDRF in A431 cells, TRIM29; type: binding; conditions: FIG. 12
T1 construct: endogenous in cells; host or cells: A431
T1 sequence (Q14134 1-588): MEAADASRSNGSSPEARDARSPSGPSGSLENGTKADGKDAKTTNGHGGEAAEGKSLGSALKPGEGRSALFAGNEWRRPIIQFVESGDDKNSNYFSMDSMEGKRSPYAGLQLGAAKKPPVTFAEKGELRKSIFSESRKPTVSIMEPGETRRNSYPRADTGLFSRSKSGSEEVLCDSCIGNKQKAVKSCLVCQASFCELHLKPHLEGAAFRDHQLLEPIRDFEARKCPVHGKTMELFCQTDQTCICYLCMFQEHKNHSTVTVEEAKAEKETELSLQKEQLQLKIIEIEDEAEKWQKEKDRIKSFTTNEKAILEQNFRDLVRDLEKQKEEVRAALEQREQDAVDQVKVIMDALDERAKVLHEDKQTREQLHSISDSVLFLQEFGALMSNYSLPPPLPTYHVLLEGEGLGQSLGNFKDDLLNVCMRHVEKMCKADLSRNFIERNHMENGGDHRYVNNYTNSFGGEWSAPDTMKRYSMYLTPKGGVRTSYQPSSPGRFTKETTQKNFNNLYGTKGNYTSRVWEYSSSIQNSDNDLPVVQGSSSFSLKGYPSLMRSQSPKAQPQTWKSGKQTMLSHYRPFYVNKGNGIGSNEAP
Excerpt: It was verified whether the oxopiperazine derivative of the present invention was bound to STING among STING and TRIM29 to inhibit interaction thereof, based on the compound of Formula 1, by the cellular thermal shift assay (CETSA) and the isothermal dose response fingerprint (ITDRF) which were major technologies for verifying the interaction between small molecule compounds and target proteins. (D. M. Molinaetal., Science 2013, 341, 84-87.)
To verify the target of the compound of Formula 1 using the CETSA technique, the human A431 cell lines and mouse Raw264.7 cell lines were seeded on a 100-mm or 150-mm culture dish and cultured for one day. […] Afterwards, centrifugation was performed at 20000 g for 20 minutes at 4° C., the supernatant was transferred to a new container, and each concentration was measured by using the Micro BCA™ protein assay kit (ThermoFisher) according to the protocol of the manufacturer. The concentration of each sample was equally adjusted by using the RIPA lysis buffer, the 5× SDS-PAGE loading buffer (Biosesang) was added according to the ratio of the manufacturer, and the resultant was treated at 95° C. for 5 minutes and analyzed by using the Western blotting method described above.

CD8+ T cells = experiment: T cell death analysis (Annexin V/7-AAD) of CD8+ T cells; type: cell-based; conditions: alone or in combination with cGAMP, 24 hours; FIG. 21
Description: CD8^+ T cells were obtained from the lymph nodes of C57BL/6 mice and separated by using MACS. CD8^+ T cells were activated on plates pre-coated with 1 μg/mL anti-CD3 and 0.5 μg/mL of anti-CD28 in the presence of 5 ng/ml of IL-2. After incubation for 24 hours in a 5% CO2 incubator at 37° C., activated CD8^+ T cells were treated with cGAMP and/or the compound of Formula 1 in various concentrations and incubated for additional 24 hours. The cells were harvested and stained with Annexin V/7-AAD to observe cell death. Data shown refer to at least three independent experiments.

STING [2] = molecular target: T2, STING (Mus musculus, UniProt Q3TBT3); experiment: STING expression level in immune cells inside tumor by flow cytometry; type: in vivo; conditions: compound alone, FIG. 28
T2 sequence (Q3TBT3 1-378): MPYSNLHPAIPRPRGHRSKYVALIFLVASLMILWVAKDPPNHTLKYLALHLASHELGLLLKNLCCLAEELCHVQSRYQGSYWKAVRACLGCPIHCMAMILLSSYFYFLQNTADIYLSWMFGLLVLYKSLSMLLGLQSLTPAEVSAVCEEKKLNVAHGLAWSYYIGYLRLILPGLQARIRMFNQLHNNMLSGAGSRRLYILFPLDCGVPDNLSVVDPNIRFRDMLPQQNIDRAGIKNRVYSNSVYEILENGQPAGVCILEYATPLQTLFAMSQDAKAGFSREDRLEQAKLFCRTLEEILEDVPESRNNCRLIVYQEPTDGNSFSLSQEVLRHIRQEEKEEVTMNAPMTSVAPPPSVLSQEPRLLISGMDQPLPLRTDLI
Description: As described above, after euthanasia with carbon dioxide, the tumor was extracted, TIL was separated, and intracellular STING staining was performed in the same manner as in <Example 6>.

tumor = experiment: Combination with PD-1 antibody immune checkpoint therapeutic agent in tumor model; type: in vivo, mouse; conditions: intratumoral, combination with intravenous PD-1 antibody compared to PD-1 antibody alone; FIG. 32
Excerpt: It was confirmed whether the efficacy can be increased in case of treating in combination with existing immune checkpoint therapeutic agents from the efficacy of constructing the systemic anticancer immune system of the compound of Formula 1.

Sequence of STING (Homo sapiens, UniProt Q86WV6) (Q86WV6 whole entry H232R, species assumed): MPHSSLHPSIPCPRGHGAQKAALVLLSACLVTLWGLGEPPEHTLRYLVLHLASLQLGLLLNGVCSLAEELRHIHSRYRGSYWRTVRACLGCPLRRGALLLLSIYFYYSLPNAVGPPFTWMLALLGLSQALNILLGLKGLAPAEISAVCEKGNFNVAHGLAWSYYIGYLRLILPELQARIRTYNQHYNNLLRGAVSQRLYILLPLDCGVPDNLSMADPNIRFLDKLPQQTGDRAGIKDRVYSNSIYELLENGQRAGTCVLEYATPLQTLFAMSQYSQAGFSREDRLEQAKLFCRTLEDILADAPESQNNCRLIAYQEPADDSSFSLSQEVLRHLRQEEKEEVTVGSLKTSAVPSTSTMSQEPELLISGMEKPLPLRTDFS

COc1ccc(CC2=CN(c3ccc(C(=O)NC[C@H]4CCCO4)cc3[N+](=O)[O-])[C@H](C(C)C)C(=O)N2Cc2ccc(O)cc2)cc1 [Formula 1, 4-((R)-4-(4-hydroxybenzyl)-2-isopropyl-5-(4-methoxybenzyl)-3-oxo-3,4-dihydropyrazin-1 (2H)-yl)-3-nitro-N-(((R)-tetrahydrofuran-2-yl)methyl)benzamide]
intracellular amount of STING under transcription and translation inhibition (STING [1]; co-treated with actinomycin D (ActD) and cycloheximide (CHX), Western blotting, FIG. 10): still increased the intracellular amount of STING | STING amount under MG132 treatment (STING [1]; co-treated with proteasome inhibitor MG132, Western blotting, FIG. 9): STING was not increased | ITDRF effect on TRIM29 (TRIM29): without affecting TRIM29 | death of cytotoxic T cells (CD8+ T cells): did not induce or promote the death of cytotoxic T cells | amount of STING in tumor-associated macrophages (TAM) and dendritic cells (DC) (STING [2]; tumor extracted one day after final treatment): increased | effect of increasing STING in M1 compared to M2 macrophages (STING [2]): more noticeably exhibited in M1 macrophages | final tumor weight (tumor): decreased in a concentration-dependent manner | tumor growth (tumor): decreased in a concentration-dependent manner
